In patent publication US20050214279A1, “Methods for stimulating human leukocytes to kill bacteria, yeast and fungi in biofilms that have formed in/on prosthetic devices, catheters, tissues and organs in vivo” (priority 2003, published 2005):

System: human neutrophils
Test: Neutrophil phagocytosis and killing of S. epidermidis in fibrin gels
Assay type: cell-based
Settings: bacteria 10^5 to 2×10^8 CFU/ml, neutrophils 10^6 to 4×10^8/ml (data not shown)
Protocol: To facilitate processing for microscopy we used 50% autologous plasma to form gels (40 μl in volume). To increase the frequency of neutrophils and S. epidermidis interactions the gels contained 4μ 10^8 neutrophils/ml (pre-incubated in medium with or without 20 μM cytochalasin D for 15 min at room temperature), 2μ 10^8 CFU/ml S. epidermidis, and 20 μM cytochalasin D, where indicated. The gels were incubated for 60 min at 37° C., fixed with 2.5% glutaraldehyde at 4° C., and then with 1% OsO4, stained en block with 1% uranyl acetate, dehydrated, and embedded in Epon. Sections ˜[…] thick were cut, stained sequentially with lead citrate and uranyl acetate, and examined in a Phillips 1200 transmission electron microscope. […]
In stirred suspensions, neutrophils must phagocytose bacteria to kill them. […] Second, cytochalasin D, which facilitates neutrophil secretions, blocked both phagocytosis (as measured by electron microscopy), and killing of S. epidermidis in fibrin gels at all bacterial (10^5 to 2×10^8 CFU/ml) and neutrophil concentrations (10^6 to 4×10^8/ml) tested (data not shown). […]

Compound: C=C1[C@@H](C)[C@H]2[C@H](Cc3ccccc3)NC(=O)[C@]23[C@H](OC(C)=O)/C=C/[C@@](C)(O)C(=O)[C@@H](C)C/C=C/[C@H]3[C@@H]1O [cytochalasin D]
- killing of S. epidermidis in fibrin gels: blocked
- phagocytosis (as measured by electron microscopy): blocked
